ChEMBL document CHEMBL4420076, “Amylin and calcitonin receptor agonist” (2017)
Numbered stars: 1 amine (or outer) side, 2 acyl side, 3 side chain; on linkers, the order of the positions; unused ones are H or OH. Square brackets hold non-standard residues; d marks the D form. Peptide text beside a SMILES is read from it. * marks the point of attachment. C20 diacid = O=C(O)CCCCCCCCCCCCCCCCCCC(=O)*; C18 diacid = O=C(O)CCCCCCCCCCCCCCCCC(=O)*; γGlu = O=C(O)[C@H](CCC(=O)[*:2])N[*:1]; AEEA = NCCOCCOCC(=O)O

Legend:
Calcitonin receptor [1] = biological target: T1, Calcitonin receptor (Homo sapiens, UniProt P30988); assay: Agonist activity at human calcitonin receptor expressed in BHK570 cells assessed as increase in intracellular cAMP concentration incubated for 3 hrs in presence of 10% FBS by CRE luciferase reporter gene assay; format: functional, cell-based
T1 sequence (P30988 whole entry): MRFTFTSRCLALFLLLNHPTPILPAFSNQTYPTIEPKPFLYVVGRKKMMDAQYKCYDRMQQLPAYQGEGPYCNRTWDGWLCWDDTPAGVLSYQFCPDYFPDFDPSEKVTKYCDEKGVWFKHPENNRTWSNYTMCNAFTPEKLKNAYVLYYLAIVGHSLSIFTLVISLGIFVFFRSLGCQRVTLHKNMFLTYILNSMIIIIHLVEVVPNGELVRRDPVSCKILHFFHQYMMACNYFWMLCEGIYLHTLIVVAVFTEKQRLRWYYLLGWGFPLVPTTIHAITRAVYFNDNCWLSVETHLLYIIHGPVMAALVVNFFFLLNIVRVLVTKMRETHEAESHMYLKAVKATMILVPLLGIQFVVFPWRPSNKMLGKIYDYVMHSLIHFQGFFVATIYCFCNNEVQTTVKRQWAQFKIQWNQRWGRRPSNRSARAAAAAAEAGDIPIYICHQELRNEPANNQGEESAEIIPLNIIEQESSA

[2] = biological target: T2, Amylin receptor AMY3; CALCR/RAMP3 (Homo sapiens, UniProt O60896+P30988); assay: Agonist activity at human amylin receptor expressed in BHK570 cells co-expressing RAMP3 assessed as increase in intracellular cAMP concentration incubated for 3 hrs in presence of 10% FBS by CRE luciferase reporter gene assay; format: functional, cell-based
T2 sequence (P30988 whole entry): T1 sequence (P30988 whole entry)
T2 sequence (O60896 whole entry): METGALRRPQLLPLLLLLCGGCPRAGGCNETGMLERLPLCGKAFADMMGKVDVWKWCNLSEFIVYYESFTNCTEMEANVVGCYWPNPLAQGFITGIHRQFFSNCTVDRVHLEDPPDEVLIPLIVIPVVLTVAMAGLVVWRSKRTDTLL

[3] = Stability in pH 7.5 buffer assessed as lag time for fibril formation at 1 uM by Thioflavin T based fluorescence assay; format: physicochemical; settings: pH 7.5, 1 µM
[4] = Solubility in 100 mM bistrispropane buffer at pH 6.0 incubated for 18 hrs by UPLC analysis; format: physicochemical
[5] = biological target: T3, Amylin receptor AMY3; CALCR/RAMP3 (Rattus norvegicus, UniProt P32214+Q9JJ73); assay: Displacement of [125I]-labeled rat amylin from rat amylin receptor expressed in BHK tkts13 cell membranes co-expressing RAMP3 incubated for 120 mins by scintillation proximity assay
T3 sequence (P32214 whole entry): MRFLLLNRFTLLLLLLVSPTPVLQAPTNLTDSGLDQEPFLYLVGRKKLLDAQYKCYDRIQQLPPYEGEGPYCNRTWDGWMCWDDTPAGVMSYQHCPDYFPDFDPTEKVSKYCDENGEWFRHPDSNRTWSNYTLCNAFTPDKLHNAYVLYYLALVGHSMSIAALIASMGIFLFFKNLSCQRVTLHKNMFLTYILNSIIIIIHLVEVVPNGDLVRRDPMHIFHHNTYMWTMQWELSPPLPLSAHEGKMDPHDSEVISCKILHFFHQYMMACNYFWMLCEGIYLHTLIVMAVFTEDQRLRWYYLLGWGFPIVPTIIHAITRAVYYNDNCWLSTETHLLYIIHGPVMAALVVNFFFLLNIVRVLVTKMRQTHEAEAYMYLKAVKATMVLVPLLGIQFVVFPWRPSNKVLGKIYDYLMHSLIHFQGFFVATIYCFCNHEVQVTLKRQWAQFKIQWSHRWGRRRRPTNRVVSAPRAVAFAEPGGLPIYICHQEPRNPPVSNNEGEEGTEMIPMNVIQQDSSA
T3 sequence (Q9JJ73 whole entry): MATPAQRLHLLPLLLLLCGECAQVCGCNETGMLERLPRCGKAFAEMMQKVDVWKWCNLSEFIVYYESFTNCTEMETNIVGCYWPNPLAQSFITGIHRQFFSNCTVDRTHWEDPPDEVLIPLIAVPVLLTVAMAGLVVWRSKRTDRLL

[6] = Solubility in 100 mM bistrispropane buffer at pH 8.0 incubated for 18 hrs by UPLC analysis; format: physicochemical
[7] = Solubility in 100 mM glycylglycine buffer at pH 3.0 incubated for 18 hrs by UPLC analysis; format: physicochemical
Rattus norvegicus [8] = assay: Reduction in food intake in Sprague-Dawley rat at 3 nmol/kg measured 0 to 24 hrs post dose relative to control; format: functional; parameters: scale not given: the % may be the effect or the level left
[9] = Stability in pH 7.5 buffer assessed as compound recovery at 1 uM by Thioflavin T based fluorescence assay; format: physicochemical; settings: read-out: Drug recovery
[10] = Solubility in 100 mM bistrispropane buffer at pH 7.0 incubated for 18 hrs by UPLC analysis; format: physicochemical
Calcitonin receptor [11] = biological target: T1, Calcitonin receptor; assay: Agonist activity at human calcitonin receptor expressed in BHK570 cells assessed as increase in intracellular cAMP concentration incubated for 3 hrs in absence of albumin by CRE luciferase reporter gene assay; format: functional, cell-based
Rattus norvegicus [12] = assay: Reduction in food intake in Sprague-Dawley rat at 3 nmol/kg measured 24 to 48 hrs post dose relative to control; format: functional; parameters: scale not given: the % may be the effect or the level left
[13] = biological target: T2, Amylin receptor AMY3; CALCR/RAMP3; assay: Displacement of [125I]-labeled rat amylin from human amylin receptor expressed in BHK570 cell membranes co-expressing RAMP3 incubated for 120 mins by scintillation proximity assay
[14] = Solubility in 100 mM bistrispropane buffer at pH 6.5 incubated for 18 hrs by UPLC analysis; format: physicochemical
[15] = Solubility in 100 mM glycylglycine buffer at pH 4.0 incubated for 18 hrs by UPLC analysis; format: physicochemical
[16] = Solubility in 100 mM bistrispropane buffer at pH 7.5 incubated for 18 hrs by UPLC analysis; format: physicochemical
Calcitonin receptor [17] = biological target: T1, Calcitonin receptor; assay: Displacement of [125I]-labeled human calcitonin from human calcitonin receptor expressed in BHK tkts13 cell membranes incubated for 1 hr by scintillation proximity assay
[18] = biological target: T2, Amylin receptor AMY3; CALCR/RAMP3; assay: Agonist activity at human amylin receptor expressed in BHK570 cells co-expressing RAMP3 assessed as increase in intracellular cAMP concentration incubated for 3 hrs in absence of albumin by CRE luciferase reporter gene assay; format: functional, cell-based
[19] = Solubility in 100 mM glycylglycine buffer at pH 5.0 incubated for 18 hrs by UPLC analysis; format: physicochemical

EC50 (Calcitonin receptor [1]) | EC50 [2] | Time [3] | solubility at 18 h [4] | IC50 [5] | solubility at 18 h [6] | solubility at 18 h [7] | remaining at 1 µM [9] | solubility at 18 h [10] | EC50 (Calcitonin receptor [11]) | IC50 [13] | solubility at 18 h [14] | solubility at 18 h [15] | solubility at 18 h [16] | IC50 (Calcitonin receptor [17]) | EC50 [18] | solubility at 18 h [19] | Structure (SMILES) | Activity (Rattus norvegicus [8]) | Activity (Rattus norvegicus [12])
0.068 nM | 0.123 nM | > 45 h | ≥ 200 µM | 0.029 nM | ≥ 200 µM | ≥ 200 µM | 100% | ≥ 200 µM | 0.052 nM | 0.166 nM | ≥ 200 µM | ≥ 200 µM | ≥ 200 µM | – | – | – | CC(C)C[C@H](NC(=O)CNC(=O)[C@H](CO)NC(=O)[C@H](C)NC(=O)COCCOCCNC(=O)COCCOCCNC(=O)CC[C@H](NC(=O)CCCCCCCCCCCCCCCCCCC(=O)O)C(=O)O)C(=O)N[C@@H](CO)C(=O)N[C@H](C(=O)N[C@@H](C)C(=O)N[C@H](C(=O)N[C@@H](CC(C)C)C(=O)NCC(=O)N[C@@H](CCCNC(=N)N)C(=O)N[C@@H](CC(C)C)C(=O)N[C@@H](CO)C(=O)N[C@@H](CCC(N)=O)C(=O)N[C@@H](CCC(=O)O)C(=O)N[C@@H](CC(C)C)C(=O)N[C@@H](Cc1cnc[nH]1)C(=O)N[C@@H](CCC(=O)O)C(=O)N[C@@H](CC(C)C)C(=O)N[C@@H](CCC(N)=O)C(=O)N[C@H](C(=O)N[C@@H](Cc1ccc(O)cc1)C(=O)N1CCC[C@H]1C(=O)N[C@@H](CCCNC(=N)N)C(=O)N[C@H](C(=O)N[C@@H](CCC(=O)O)C(=O)N[C@H](C(=O)NCC(=O)N[C@@H](CO)C(=O)NCC(=O)N[C@H](C(=O)N[C@@H](Cc1ccc(O)cc1)C(N)=O)[C@@H](C)O)[C@@H](C)O)[C@@H](C)O)[C@@H](C)O)C(C)C)[C@@H](C)O | 22% | 19%
0.053 nM | 0.07 nM | > 45 h | ≥ 200 µM | – | ≥ 200 µM | ≥ 200 µM | 100% | ≥ 200 µM | – | 0.122 nM | ≥ 200 µM | ≥ 200 µM | ≥ 200 µM | 0.057 nM | – | – | CC(C)C[C@H](NC(=O)CNC(=O)[C@H](CO)NC(=O)[C@H](C)NC(=O)CC[C@H](NC(=O)CCCCCCCCCCCCCCCCC(=O)O)C(=O)O)C(=O)N[C@@H](CO)C(=O)N[C@H](C(=O)N[C@@H](C)C(=O)N[C@@H](C)C(=O)N[C@@H](CC(C)C)C(=O)NCC(=O)N[C@@H](CCCNC(=N)N)C(=O)N[C@@H](CC(C)C)C(=O)N[C@@H](CO)C(=O)N[C@@H](CCC(N)=O)C(=O)N[C@@H](CCC(=O)O)C(=O)N[C@@H](CC(C)C)C(=O)N[C@@H](Cc1cnc[nH]1)C(=O)N[C@@H](CCC(=O)O)C(=O)N[C@@H](CC(C)C)C(=O)N[C@@H](CCC(N)=O)C(=O)N[C@H](C(=O)N[C@@H](Cc1ccc(O)cc1)C(=O)N1CCC[C@H]1C(=O)N[C@@H](CCCNC(=N)N)C(=O)N[C@H](C(=O)N[C@@H](CCC(=O)O)C(=O)N[C@H](C(=O)NCC(=O)N[C@@H](CO)C(=O)NCC(=O)N[C@H](C(=O)N[C@@H](Cc1ccc(O)cc1)C(N)=O)[C@@H](C)O)[C@@H](C)O)[C@@H](C)O)[C@@H](C)O)[C@@H](C)O ({C18 diacid-γGlu}-ASGLSTAALGRLSQELHELQTYPRTETGSGTY-NH2) | 44% | 8%
0.035 nM | 0.067 nM | > 45 h | ≥ 200 µM | – | ≥ 200 µM | ≥ 200 µM | 100% | ≥ 200 µM | 0.012 nM | 0.159 nM | ≥ 200 µM | ≥ 200 µM | ≥ 200 µM | 0.05 nM | 0.017 nM | ≥ 200 µM | CC(C)C[C@H](NC(=O)[C@H](C)NC(=O)[C@H](C)NC(=O)[C@@H](NC(=O)[C@H](CO)NC(=O)[C@H](CC(C)C)NC(=O)[C@H](CCC(=O)O)NC(=O)[C@H](CO)NC(=O)[C@H](C)NC(=O)COCCOCCNC(=O)COCCOCCNC(=O)CC[C@H](NC(=O)CCCCCCCCCCCCCCCCCCC(=O)O)C(=O)O)[C@@H](C)O)C(=O)NCC(=O)N[C@@H](CCCNC(=N)N)C(=O)N[C@@H](CC(C)C)C(=O)N[C@@H](CO)C(=O)N[C@@H](C)C(=O)N[C@@H](CCC(=O)O)C(=O)N[C@@H](CC(C)C)C(=O)N[C@@H](Cc1cnc[nH]1)C(=O)N[C@@H](CCC(=O)O)C(=O)N[C@@H](CC(C)C)C(=O)N[C@@H](C)C(=O)N[C@H](C(=O)N[C@@H](CC(C)C)C(=O)N1CCC[C@H]1C(=O)N[C@@H](CCCNC(=N)N)C(=O)N[C@H](C(=O)N[C@@H](CCC(=O)O)C(=O)N[C@H](C(=O)NCC(=O)N[C@@H](CO)C(=O)NCC(=O)N[C@@H](CO)C(=O)N1CCC[C@H]1C(N)=O)[C@@H](C)O)[C@@H](C)O)[C@@H](C)O ({C20 diacid-γGlu-AEEA-AEEA}-ASELSTAALGRLSAELHELATLPRTETGSGSP-NH2) | – | –
0.023 nM | 0.094 nM | – | ≥ 200 µM | – | ≥ 200 µM | ≥ 200 µM | – | ≥ 200 µM | 0.014 nM | 0.029 nM | ≥ 200 µM | ≥ 200 µM | ≥ 200 µM | 0.022 nM | 0.02 nM | ≥ 200 µM | CC(C)C[C@H](NC(=O)[C@H](C)NC(=O)[C@H](C)NC(=O)[C@@H](NC(=O)[C@H](CO)NC(=O)[C@H](CC(C)C)NC(=O)[C@H](CCC(=O)O)NC(=O)[C@H](CO)NC(=O)[C@H](C)NC(=O)CC[C@H](NC(=O)CCCCCCCCCCCCCCCCCCC(=O)O)C(=O)O)[C@@H](C)O)C(=O)NCC(=O)N[C@@H](CCCNC(=N)N)C(=O)N[C@@H](CC(C)C)C(=O)N[C@@H](CO)C(=O)N[C@H](CCC(=O)O)C(=O)N[C@@H](CCC(=O)O)C(=O)N[C@@H](CC(C)C)C(=O)N[C@@H](Cc1cnc[nH]1)C(=O)N[C@@H](CCC(=O)O)C(=O)N[C@@H](CC(C)C)C(=O)N[C@@H](C)C(=O)N[C@H](C(=O)N[C@@H](CC(C)C)C(=O)N1CCC[C@H]1C(=O)N[C@@H](CCCNC(=N)N)C(=O)N[C@H](C(=O)N[C@@H](CCC(=O)O)C(=O)N[C@H](C(=O)NCC(=O)N[C@@H](CO)C(=O)NCC(=O)N[C@@H](CO)C(=O)N1CCC[C@H]1C(N)=O)[C@@H](C)O)[C@@H](C)O)[C@@H](C)O ({C20 diacid-γGlu}-ASELSTAALGRLS[dE]ELHELATLPRTETGSGSP-NH2) | – | –
